# From paper PMC8225008, “Development of Non-Ethoxypropanoic Acid Type Cryptochrome Inhibitors with Circadian Molecular Clock-Enhancing Activity by Bioisosteric Replacement” (Pharmaceuticals, 2021)
# Assays:
# E-box-LUC reporter = test: E-box-LUC luciferase reporter assay, dose-response in stably transfected NIH3T3 cells; format: cell-based; conditions: Mus musculus, E-box-LUC reporter activity, NIH3T3, 36 h; for Emax: maximum response as a percentage of the vehicle-treated group, read-out: Max (%)
# Procedure: Materials for cell culture were purchased from Thermo Fisher Scientific, unless otherwise stated. NIH3T3 and HEK293T cells were maintained in Dulbecco’s modified Eagle medium supplemented with 5% fetal bovine serum and 100 U/mL penicillin/streptomycin in a humidified atmosphere containing 5% CO2 at 37 °C. Plasmids and transfection experiments for luciferase reporter assay were described in our previous report. For dose-response experiments, mouse NIH3T3 cells stably transfected with an E-box-LUC reporter were plated in 12-well culture plates, treated as indicated for 36 h, and subjected to luciferase assay. For transient transfections, we seeded HEK293T cells in 12-well culture plates and used Lipofectamine® 3000 reagent to transfect cells with the E-box-LUC reporter and the indicated clock gene expression plasmids together with a thymidine kinase promoter-driven Renilla luciferase (pRL-TK) plasmids. We kept total DNA levels constant by adding an empty pcDNA3.1 plasmid. After 24 h of transfection, cells were treated with vehicle (0.1% DMSO) or chemical compounds at various concentrations for 36 h. Cell extracts were prepared by incubating cells in 0.3 mL reporter lysis buffer for 15 min at room temperature. Luciferase activity was measured with a commercial dual luciferase assay kit (Promega, Madison, WI, USA).
# (§1) The EC50 values for luciferase reporter assay were calculated based on a logistic four-parametric equation using the mean values of intrinsic activation (SigmaPlot 10.0; Systat Software Inc., San Jose, CA, USA). The IC50 and t1/2 values for the cytochrome P450 inhibition assay and metabolic stability test were calculated by WinNonlin software (Pharsight, Mountain View, CA, USA). Pharmacokinetic parameters were calculated using non-compartmental analysis (WinNonlin v.8.3; Pharsight, Mountain View, CA, USA). Kinetic and equilibrium constants for SPR analysis were obtained by global fitting of the Langmuir 1:1 bimolecular kinetic model (ProteOn Manager v.3.1.0.6, Bio-Rad, Hercules, CA, USA). Circadian molecular clock-enhancing activities were expressed as means ± SE and statistically evaluated by Student’s t-test or one-way analysis of variance (ANOVA) followed by Newman–Keuls multiple comparison test for post hoc comparisons. The significance level for the analyses was set at p < 0.05.
# CYP2C19 = target: T1, CYP2C19 (Homo sapiens, UniProt P33261); test: Cytochrome P450 inhibition assay (cocktail method, human liver microsomes), omeprazole hydroxylation; format: in vitro ADME
# T1 construct: pooled human liver microsomes (HLMs, XTreme 200, XenoTech, Lenexa, KS, USA); tissue XenoTech XTreme 200; host or cells: pooled human liver microsomes
# Procedure: (§2) The inhibitory effects of KS15 and compound 5d on the metabolism of five cytochrome P450 (P450) probe substrates were evaluated using previous methods with slight modifications. The following P450 probe substrates were used: phenacetin (100 μM) for CYP1A2, tolbutamide (100 μM) for CYP2C9, omeprazole (20 μM) for CYP2C19, dextromethorphan (5 μM) for CYP2D6, and midazolam (5 μM) for CYP3A. Incubation mixtures containing pooled human liver microsomes (HLMs, XTreme 200, XenoTech, Lenexa, KS, USA), P450 probe substrates, and KS15 or compound 5d (final concentrations: 0, 0.5, 2, 5, 20, and 50 μM) were preincubated for 5 min at 37 °C. […] After centrifugation at 18,000× g (5 min, 4 °C), supernatant aliquots were analyzed by liquid chromatography-tandem mass spectrometry (LC-MS/MS). […]
# (§3) All metabolites and IS were separated on a Kinetex C18 column (100 mm × 2.1 mm, 2.6 μm ID., Phenomenex, Torrance, CA, USA) and analyzed using an LC-MS/MS system (LCMS 8060, Shimadzu, Tokyo, Japan) equipped with an electrospray ionization (ESI) interface. […]
# (§4) The EC50 values for luciferase reporter assay were calculated based on a logistic four-parametric equation using the mean values of intrinsic activation (SigmaPlot 10.0; Systat Software Inc., San Jose, CA, USA). […] Pharmacokinetic parameters were calculated using non-compartmental analysis (WinNonlin v.8.3; Pharsight, Mountain View, CA, USA). […]
# CYP1A2 = target: T2, CYP1A2 (Homo sapiens, UniProt P05177); test: Cytochrome P450 inhibition assay (cocktail method, human liver microsomes), phenacetin O-deethylation; format: in vitro ADME
# T2 construct: pooled human liver microsomes (HLMs, XTreme 200, XenoTech, Lenexa, KS, USA); tissue XenoTech XTreme 200; host or cells: pooled human liver microsomes
# T2 sequence (P05177 1-516): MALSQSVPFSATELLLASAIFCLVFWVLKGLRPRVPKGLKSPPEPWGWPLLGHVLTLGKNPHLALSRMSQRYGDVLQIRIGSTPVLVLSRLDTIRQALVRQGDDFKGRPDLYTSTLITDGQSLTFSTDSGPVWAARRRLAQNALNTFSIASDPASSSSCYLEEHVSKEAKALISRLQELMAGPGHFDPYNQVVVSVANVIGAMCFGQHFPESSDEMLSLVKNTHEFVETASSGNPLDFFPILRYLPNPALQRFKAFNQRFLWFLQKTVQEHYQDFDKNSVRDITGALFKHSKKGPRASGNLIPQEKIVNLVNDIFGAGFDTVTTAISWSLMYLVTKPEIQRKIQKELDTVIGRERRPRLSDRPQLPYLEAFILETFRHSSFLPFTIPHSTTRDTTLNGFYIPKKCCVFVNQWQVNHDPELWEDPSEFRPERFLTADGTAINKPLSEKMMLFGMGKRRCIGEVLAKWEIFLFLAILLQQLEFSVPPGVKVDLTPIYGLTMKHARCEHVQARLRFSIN
# Procedure: as §2, §3, §4
# CYP2C9 = target: T3, CYP2C9 (Homo sapiens, UniProt P11712); test: Cytochrome P450 inhibition assay (cocktail method, human liver microsomes), tolbutamide 4-methylhydroxylation; format: in vitro ADME
# T3 construct: pooled human liver microsomes (HLMs, XTreme 200, XenoTech, Lenexa, KS, USA); tissue XenoTech XTreme 200; host or cells: pooled human liver microsomes
# Procedure: as §2, §3, §4
# CYP3A = test: Cytochrome P450 inhibition assay (cocktail method, human liver microsomes), midazolam 1'-hydroxylation; format: in vitro ADME; conditions: pooled human liver microsomes, probe midazolam (5 μM)
# Procedure: as §2, §3, §4
# CYP2D6 = target: T4, CYP2D6 (Homo sapiens, UniProt P10635); test: Cytochrome P450 inhibition assay (cocktail method, human liver microsomes), dextromethorphan O-demethylation; format: in vitro ADME
# T4 construct: pooled human liver microsomes (HLMs, XTreme 200, XenoTech, Lenexa, KS, USA); tissue XenoTech XTreme 200; host or cells: pooled human liver microsomes
# Procedure: as §2, §3, §4
# [1] = Metabolic stability test in pooled human liver microsomes; format: in vitro ADME; conditions: pooled HLMs 1.0 mg/mL, 1 μM compound, NADPH generating system, read-out: t1/2 in HLMs
# Procedure: The metabolic stability of KS15, 5d, or 2d was evaluated using pooled HLMs. Pooled HLMs (1.0 mg/mL), a potassium phosphate buffer, and a test compound (1 μM) were pre-incubated (37 °C, 5 min). To initiate the reaction, the NADPH generating system was added to the samples and incubated for specific time points (0, 5, 15, 20, 45, and 60 min). Then, aliquots were taken and reactions terminated in acetonitrile containing IS. After centrifugation, supernatants were analyzed using LC-MS/MS to determine KS15, 5d, or 2d concentrations in samples. Analyte separation was performed using a Kinetex C18 column (100 mm × 2.1 mm, 2.6 μm ID., Phenomenex). The mobile phase solvent A was 0.1% formic acid in water, and solvent B was 0.1% formic acid in acetonitrile. Gradient separation was performed as follows: 0–3 min (10–90% B) and 3.1–8 min (10% B). The flow rate was 0.2 mL/min, and the run time was 8 min for each sample. Electrospray ionization was conducted in positive ion mode at 4 kV. […] Quantitation was performed in the SRM of the [M+H]^+ ion and the related product ion for each test compound and IS: KS-15 (m/z 420 > 169, CE 30 eV), 5d (m/z 359 > 206, CE 20 eV), 2d (m/z 345 > 192, CE 22 eV), and IS (m/z 295 > 100, CE 17 eV).
# as §1, with “Kinetic and equilibrium constants for SPR analysis were obtained by global fitting of the Langmuir 1:1 bimolecular kinetic model (ProteOn Manager v.3.1.0.6, Bio-Rad, Hercules, CA, USA).” left out, “The significance level for the analyses was set at p < 0.05.” left out
# [2] = test system: Per2-luciferase knock-in (Per2-Luc-KI) fibroblast cultures; test: Real-time bioluminescence monitoring of DEX-synchronized Per2-Luc-KI fibroblast cultures; format: cell-based, mouse; conditions: 20 μM, DEX-synchronized Per2-Luc-KI fibroblasts
# Procedure: For real-time bioluminescence monitoring, we used mouse embryonic fibroblast (MEF) cultures established from Per2-LUC-KI mice. […] The medium was then replaced with a recording medium containing 0.1 mM D-luciferin (Promega) along with vehicle (0.1% DMSO), KS15 (20 μM), 5d (20 μM), or 2d (20 μM). Light emission for 2 min at intervals of 20 min was integrated using a dish-type wheeled luminometer (Kronos-Dio, ATTO Cooperation, Tokyo, Japan). Background-subtracted bioluminescence profiles were analyzed using Cosinor analysis software (available at http://www.circadian.org, last accessed on 19 May 2021).
# as §1
# T3 sequence (P11712 whole entry): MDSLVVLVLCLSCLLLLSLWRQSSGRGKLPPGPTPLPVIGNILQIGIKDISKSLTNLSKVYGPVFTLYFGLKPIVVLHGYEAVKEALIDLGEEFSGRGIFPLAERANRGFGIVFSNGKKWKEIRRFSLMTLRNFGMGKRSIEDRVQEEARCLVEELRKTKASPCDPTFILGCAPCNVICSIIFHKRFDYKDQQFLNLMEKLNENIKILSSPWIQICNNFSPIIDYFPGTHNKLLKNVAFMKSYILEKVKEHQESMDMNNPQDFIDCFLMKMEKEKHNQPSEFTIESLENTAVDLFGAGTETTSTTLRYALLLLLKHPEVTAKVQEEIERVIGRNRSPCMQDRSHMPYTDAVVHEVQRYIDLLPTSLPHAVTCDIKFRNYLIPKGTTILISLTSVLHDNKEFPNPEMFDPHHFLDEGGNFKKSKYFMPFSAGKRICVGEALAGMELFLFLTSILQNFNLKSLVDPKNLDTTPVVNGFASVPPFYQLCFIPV
# T1 sequence (P33261 whole entry): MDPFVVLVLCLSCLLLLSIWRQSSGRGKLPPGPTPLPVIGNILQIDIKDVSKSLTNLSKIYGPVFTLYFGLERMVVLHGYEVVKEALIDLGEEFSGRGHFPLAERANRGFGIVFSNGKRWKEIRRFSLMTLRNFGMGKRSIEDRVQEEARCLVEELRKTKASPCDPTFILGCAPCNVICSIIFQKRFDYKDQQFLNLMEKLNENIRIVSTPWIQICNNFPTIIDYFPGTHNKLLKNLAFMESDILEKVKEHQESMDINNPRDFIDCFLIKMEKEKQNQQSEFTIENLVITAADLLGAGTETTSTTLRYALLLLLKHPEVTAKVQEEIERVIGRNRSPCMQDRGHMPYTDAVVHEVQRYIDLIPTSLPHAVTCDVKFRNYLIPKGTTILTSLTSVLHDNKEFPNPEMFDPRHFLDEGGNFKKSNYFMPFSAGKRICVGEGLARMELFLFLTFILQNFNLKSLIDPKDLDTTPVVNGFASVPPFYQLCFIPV
# T4 sequence (P10635 whole entry): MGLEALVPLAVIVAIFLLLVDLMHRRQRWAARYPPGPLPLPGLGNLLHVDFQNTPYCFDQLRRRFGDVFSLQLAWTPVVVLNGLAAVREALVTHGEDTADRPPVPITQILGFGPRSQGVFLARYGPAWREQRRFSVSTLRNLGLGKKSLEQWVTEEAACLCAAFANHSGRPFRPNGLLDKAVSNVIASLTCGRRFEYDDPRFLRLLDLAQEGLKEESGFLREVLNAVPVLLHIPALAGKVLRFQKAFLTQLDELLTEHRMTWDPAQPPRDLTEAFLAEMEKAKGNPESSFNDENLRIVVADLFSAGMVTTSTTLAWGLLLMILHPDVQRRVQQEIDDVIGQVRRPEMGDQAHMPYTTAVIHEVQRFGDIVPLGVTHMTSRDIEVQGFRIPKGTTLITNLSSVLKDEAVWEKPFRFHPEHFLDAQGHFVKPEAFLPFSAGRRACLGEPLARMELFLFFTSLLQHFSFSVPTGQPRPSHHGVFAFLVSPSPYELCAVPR
EC50 (E-box-LUC reporter),SMILES,Emax (E-box-LUC reporter),also measured
1.54 µM,C/C(=N\OCc1ccc(Br)cc1)c1cccc(OCC(=O)O)c1 [Compound 2a],165%,
,"CC(=NOCc1cccc(C(F)(F)F)c1)c1cccc(OCC(=O)O)c1 [Compound 2b, 2-(3-(1-(((3-trifluoromethylbenzyl)oxy)imino)ethyl)phenoxy)acetic acid]",131%,
9.88 µM,"COc1ccc(CON=C(C)c2cccc(OCC(=O)O)c2)cc1 [Compound 2c, 2-(3-(1-(((4-methoxybenzyl)oxy)imino)ethyl)phenoxy)acetic acid]",182%,
,"CC(=NOCc1ccc(S(C)(=O)=O)cc1)c1cccc(OCC(=O)O)c1 [Compound 2e, 2-(3-(1-(((4-methylsulfonylbenzyl)oxy)imino)ethyl)phenoxy)acetic acid]",98.7%,
,COC(=O)COc1cccc(/C(C)=N/OCc2ccc(Br)cc2)c1 [Compound 5a],149%,
,"COC(=O)COc1cccc(C(C)=NOCc2cccc(C(F)(F)F)c2)c1 [Compound 5b, Methyl 2-(3-(1-(((3-trifluoromethylbenzyl)oxy)imino)ethyl)phenoxy)acetate]",172%,
6.32 µM,"COC(=O)COc1cccc(C(C)=NOCc2ccc(OC)cc2)c1 [Compound 5c, Methyl 2-(3-(1-(((4-methoxybenzyl)oxy)imino)ethyl)phenoxy)acetate]",152%,
,"COC(=O)COc1cccc(C(C)=NOCc2ccc(S(C)(=O)=O)cc2)c1 [Compound 5e, Methyl 2-(3-(1-(((4-methylsulfonylbenzyl)oxy)imino)ethyl)phenoxy)acetate]",105%,
,"CCO[C@H](Cc1cccc(/C(C)=N/OCc2ccc(Br)cc2)c1)C(=O)O [KS15, reference compound]",,IC50 (CYP2C19): 20.2 µM; IC50 (CYP1A2): 14.9 µM; IC50 (CYP2C9): 9.1 µM; IC50 at 10 min (CYP3A): 24 µM; IC50 (CYP2D6): 23.1 µM; half-life at 1 μM [1]: > 1 h; Amplitude of cyclic Per2 expression [2]: attenuates amplitude; Period of the rhythm [2]: did not significantly alter the period
